Measured values reported in PubChem BioAssay (NCI).
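Method: 48-hour compound exposure of cells in 96-well plates, five concentrations, linear interpolation of endpoints. Definition used: TGI = concentration required for complete inhibition of growth.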

Key:
Experiment in all cases: inhibition of tumour cell growth, NCI panel, 48 h
OVCAR-3 ovarian = tested on: OVCAR-3 ovarian
SK-MEL-2 melanoma = tested on: SK-MEL-2 melanoma
UACC-62 melanoma = tested on: UACC-62 melanoma
HCT-116 colon = tested on: HCT-116 colon
RXF 393 renal = tested on: RXF 393 renal
SF-268 CNS = tested on: SF-268 CNS
HOP-92 NSCLC = tested on: HOP-92 NSCLC
SK-MEL-28 melanoma = tested on: SK-MEL-28 melanoma
MCF7 breast = tested on: MCF7 breast
COLO 205 colon = tested on: COLO 205 colon
SNB-19 CNS = tested on: SNB-19 CNS
LOX IMVI melanoma = tested on: LOX IMVI melanoma
ACHN renal = tested on: ACHN renal
OVCAR-5 ovarian = tested on: OVCAR-5 ovarian
NCI/ADR-RES ovarian = tested on: NCI/ADR-RES ovarian
SK-OV-3 ovarian = tested on: SK-OV-3 ovarian
KM12 colon = tested on: KM12 colon
HT29 colon = tested on: HT29 colon
NCI-H460 lung = tested on: NCI-H460 lung
NCI-H23 lung = tested on: NCI-H23 lung
RPMI-8226 leukemia = tested on: RPMI-8226 leukemia
MOLT-4 leukemia = tested on: MOLT-4 leukemia
EKVX NSCLC = tested on: EKVX NSCLC
SF-295 CNS = tested on: SF-295 CNS
T-47D breast = tested on: T-47D breast
IGROV1 ovarian = tested on: IGROV1 ovarian
OVCAR-8 ovarian = tested on: OVCAR-8 ovarian
786-0 renal = tested on: 786-0 renal
A549 NSCLC = tested on: A549 NSCLC
SW-620 colon = tested on: SW-620 colon
PC-3 prostate = tested on: PC-3 prostate
K-562 leukemia = tested on: K-562 leukemia
SK-MEL-5 melanoma = tested on: SK-MEL-5 melanoma
MALME-3M melanoma = tested on: MALME-3M melanoma
MDA-N = tested on: MDA-N
MDA-MB-231 breast = tested on: MDA-MB-231 breast
UO-31 renal = tested on: UO-31 renal
MDA-MB-435 = tested on: MDA-MB-435
U251 CNS = tested on: U251 CNS
BT-549 breast = tested on: BT-549 breast
HCT-15 colon = tested on: HCT-15 colon
HCC-2998 colon = tested on: HCC-2998 colon
TK-10 renal = tested on: TK-10 renal
NCI-H522 lung = tested on: NCI-H522 lung
CCRF-CEM leukemia = tested on: CCRF-CEM leukemia
CAKI-1 renal = tested on: CAKI-1 renal
SN12C renal = tested on: SN12C renal
UACC-257 melanoma = tested on: UACC-257 melanoma
HOP-62 NSCLC = tested on: HOP-62 NSCLC
M14 melanoma = tested on: M14 melanoma
SR leukemia = tested on: SR leukemia
SNB-75 CNS = tested on: SNB-75 CNS
DU-145 prostate = tested on: DU-145 prostate
A498 renal = tested on: A498 renal
SF-539 CNS = tested on: SF-539 CNS
NCI-H226 lung = tested on: NCI-H226 lung
OVCAR-4 ovarian = tested on: OVCAR-4 ovarian
HS 578T breast = tested on: HS 578T breast

Measured: TGI

Cc1nc2c(=O)[nH]c(=O)nc-2n(CCO)c1C
> 100 µM: all assays above
